How the values were obtained:
Experiment in all cases: Test C preemergence
Format in all cases: in vivo
[1] = system: Surinam grass (Brachiaria decumbens); conditions: for Plant response rating (0 to 100), Surinam grass: visual evaluation after 12 to 14 days
Source text: (§1) Seeds of plant species selected from bermudagrass (Cynodon dactylon), Surinam grass (Brachiaria decumbens), cocklebur (Xanthium strumarium), corn (Zea mays), crabgrass (Digitaria sanguinalis), woolly cupgrass (Eriochloa villosa), giant foxtail (Setaria faberii), goosegrass (Eleusine indica), johnsongrass (Sorghum halepense), kochia (Kochia scoparia), lambsquarters (Chenopodium album), morningglory (Ipomoea hederacea), yellow nutsedge (Cyperus esculentus), pigweed (Amaranthus retroflexus), common ragweed (Ambrosia elatior), soybean (Glycine max) and velvetleaf (Abutilon theophrasti) were planted and treated preemergence with test chemicals formulated in a non-phytotoxic solvent mixture which included a surfactant.
(§2) At the same time, plants selected from these crop and weed species and also winter barley (Hordeum vulgare), blackgrass (Alopecurus myosuroides), canary grass (Phalaris minor), chickweed (Stellaria media), downy brome (Bromus tectorum), green foxtail (Setaria viridis), Italian ryegrass (Lolium multiflorum), wheat (Triticum aestivum), wild oat (Avena fatua) and windgrass (Apera spica-venti) were treated with postemergence applications of some of the test chemicals formulated in the same manner. Plants ranged in height from 2 to 18 cm (1- to 4-leaf stage) for postemergence treatments. Plant species in the flooded paddy test consisted of rice (Oryza saliva), smallflower flatsedge (Cyperus difformis), duck salad (Heteranthera limosa) and barnyardgrass (Echinochloa crus-galli) grown to the 2-leaf stage for testing. Treated plants and controls were maintained in a greenhouse for 12 to 14 days, after which time all species were compared to controls and visually evaluated. Plant response ratings, summarized in Table C, are based on a scale of 0 to 100 where 0 is no effect and 100 is complete control. A dash (-) response means no test result.

[2] = system: bermudagrass (Cynodon dactylon); conditions: for Plant response rating (0 to 100 where 0 is no effect and 100 is complete control), Bermudagrass: visual evaluation after 12 to 14 days
Source text: as §1, §2

[3] = system: giant foxtail (Setaria faberii); conditions: for Plant response rating (0 to 100), Foxtail, Giant: visual evaluation after 12 to 14 days
Source text: as §1, §2

[4] = system: goosegrass (Eleusine indica); conditions: for Plant response rating (0 to 100), Goosegrass: visual evaluation after 12 to 14 days
Source text: as §1, §2

[5] = system: johnsongrass (Sorghum halepense); conditions: for Plant response rating (0 to 100), Johnsongrass: visual evaluation after 12 to 14 days
Source text: as §1, §2

[6] = system: pigweed (Amaranthus retroflexus); conditions: for Plant response rating (0 to 100), Pigweed: visual evaluation after 12 to 14 days
Source text: as §1, §2

[7] = system: kochia (Kochia scoparia); conditions: for Plant response rating (0 to 100), Kochia: visual evaluation after 12 to 14 days
Source text: as §1, §2

[8] = system: Sunflower
Source text: as §1, §2

[9] = system: woolly cupgrass (Eriochloa villosa); conditions: for Plant response rating (0 to 100), Cupgrass, Woolly: visual evaluation after 12 to 14 days
Source text: as §1, §2

[10] = system: velvetleaf (Abutilon theophrasti); conditions: for Plant response rating (0 to 100), Velvetleaf: visual evaluation after 12 to 14 days
Source text: as §1, §2

[11] = system: morningglory (Ipomoea hederacea); conditions: for Plant response rating (0 to 100), Morningglory: visual evaluation after 12 to 14 days
Source text: as §1, §2

[12] = system: crabgrass (Digitaria sanguinalis); conditions: for Plant response rating (0 to 100), Crabgrass: visual evaluation after 12 to 14 days
Source text: as §1, §2

[13] = system: lambsquarters (Chenopodium album); conditions: for Plant response rating (0 to 100), Lambsquarters: visual evaluation after 12 to 14 days
Source text: as §1, §2

[14] = system: Nightshade
Source text: as §1, §2

[15] = system: soybean (Glycine max); conditions: for Plant response rating (0 to 100), Soybean: visual evaluation after 12 to 14 days
Source text: as §1, §2

[16] = system: corn (Zea mays); conditions: for Plant response rating (0 to 100), Corn: visual evaluation after 12 to 14 days
Source text: as §1, §2

[17] = system: cocklebur (Xanthium strumarium); conditions: for Plant response rating (0 to 100), Cocklebur: visual evaluation after 12 to 14 days
Source text: as §1, §2

[18] = system: yellow nutsedge (Cyperus esculentus); conditions: for Plant response rating (0 to 100), Nutsedge: visual evaluation after 12 to 14 days
Source text: as §1, §2

[19] = system: Nightshade; conditions: visual evaluation after 12 to 14 days
[20] = system: common ragweed (Ambrosia elatior); conditions: preemergence; for Plant response rating, Ragweed, Common: scale 0 to 100, 0 no effect, 100 complete control
Source text: as §1, §2

[21] = Preemergence, Rate 500 g/ha, scale 0 to 100
[22] = Rate 62 g/ha, scale 0 to 100, 0 no effect, 100 complete control
[23] = preemergence, Rate 125 g/ha, scale 0 to 100, 0 no effect, 100 complete control
[24] = Rate 125 g/ha, scale 0 to 100, 0 no effect, 100 complete control
[25] = preemergence, Rate 250 g/ha, scale 0 to 100, 0 no effect, 100 complete control

CCC(C)c1ccn(C2SCN(c3cccc(C(F)(F)F)c3)C2=O)n1 (stereo not drawn) [Compound 20]
30: Plant response rating, Pigweed [6, 23] | Plant response rating, Morningglory [11, 23] | Plant response rating, Nightshade [14, 22] | Plant response rating, Corn [16, 21] | Plant response rating (0 to 100), Corn ([16]; preemergence, Rate 250 g/ha) | Plant response rating, Corn [16, 23]
70: Plant response rating, Bermudagrass [2, 22] | Plant response rating, Sunflower ([8]; Rate 500 g/ha, scale 0 to 100) | Plant response rating, Nightshade [14, 24]
90: Plant response rating, Kochia [7, 22] | Plant response rating (0 to 100), Cupgrass, Woolly ([9]; preemergence, Rate 250 g/ha) | Plant response rating, Lambsquarters [13, 22] | Plant response rating, Nightshade ([14]; Rate 500 g/ha, scale 0 to 100) | Plant response rating (0 to 100), Nightshade ([19]; Rate 250 g/ha)
50: Plant response rating (0 to 100), Johnsongrass ([5]; preemergence, Rate 250 g/ha) | Plant response rating, Cupgrass, Woolly [9, 23] | Plant response rating, Cocklebur [17, 21] | Plant response rating, Nutsedge [18, 21] | Plant response rating (0 to 100), Nutsedge ([18]; preemergence, Rate 250 g/ha)
80: Plant response rating, Goosegrass [4, 22]
0: Plant response rating, Surinam grass [1, 22] | Plant response rating (0 to 100), Surinam grass ([1]; preemergence, Rate 250 g/ha) | Plant response rating, Surinam grass [1, 23] | Plant response rating, Foxtail, Giant [3, 21] | Plant response rating, Foxtail, Giant [3, 22] | Plant response rating, Foxtail, Giant [3, 23] | Plant response rating, Johnsongrass [5, 22] | Plant response rating, Pigweed [6, 22] | Plant response rating, Sunflower [8, 22] | Plant response rating, Cupgrass, Woolly [9, 22] | Plant response rating, Velvetleaf [10, 22] | Plant response rating, Velvetleaf [10, 23] | Plant response rating, Morningglory [11, 22] | Plant response rating, Crabgrass [12, 22] | Plant response rating, Soybean [15, 22] | Plant response rating, Soybean [15, 23] | Plant response rating, Corn [16, 22] | Plant response rating, Cocklebur [17, 22] | Plant response rating (0 to 100), Cocklebur ([17]; preemergence, Rate 250 g/ha) | Plant response rating, Cocklebur [17, 23] | Plant response rating, Nutsedge [18, 22] | Plant response rating, Nutsedge [18, 23]
100: Plant response rating, Bermudagrass [2, 21] | Plant response rating (0 to 100 where 0 is no effect and 100 is complete control), Bermudagrass ([2]; preemergence, Rate 250 g/ha) | Plant response rating, Bermudagrass [2, 23] | Plant response rating (0 to 100), Foxtail, Giant ([3]; preemergence, Rate 250 g/ha) | Plant response rating, Goosegrass [4, 21] | Plant response rating (0 to 100), Goosegrass ([4]; preemergence, Rate 250 g/ha) | Plant response rating, Goosegrass [4, 23] | Plant response rating, Johnsongrass [5, 21] | Plant response rating (0 to 100), Pigweed ([6]; preemergence, Rate 250 g/ha) | Plant response rating, Kochia [7, 21] | Plant response rating (0 to 100), Kochia ([7]; preemergence, Rate 250 g/ha) | Plant response rating, Kochia [7, 23] | Plant response rating, Cupgrass, Woolly [9, 21] | Plant response rating, Crabgrass [12, 21] | Plant response rating (0 to 100), Crabgrass ([12]; preemergence, Rate 250 g/ha) | Plant response rating, Crabgrass [12, 23] | Plant response rating, Lambsquarters [13, 21] | Plant response rating (0 to 100), Lambsquarters ([13]; preemergence, Rate 250 g/ha) | Plant response rating, Lambsquarters [13, 23]
60: Plant response rating, Pigweed [6, 21] | Plant response rating, Soybean [15, 21] | Plant response rating (0 to 100), Soybean ([15]; preemergence, Rate 250 g/ha)
40: Plant response rating, Surinam grass [1, 21] | Plant response rating, Morningglory [11, 21] | Plant response rating (0 to 100), Morningglory ([11]; preemergence, Rate 250 g/ha)
20: Plant response rating, Johnsongrass [5, 23] | Plant response rating, Velvetleaf [10, 21] | Plant response rating (0 to 100), Velvetleaf ([10]; preemergence, Rate 250 g/ha)

CCOC(=O)c1cccc(N2CCC(n3ccc(C(C)(C)C)n3)C2=O)c1 (stereo not drawn) [Compound 72]
40: Plant response rating (0 to 100), Johnsongrass ([5]; preemergence, Rate 500 g/ha) | Plant response rating (0 to 100), Velvetleaf ([10]; preemergence, Rate 500 g/ha)
50: Plant response rating (0 to 100), Surinam grass ([1]; preemergence, Rate 500 g/ha)
0: Plant response rating, Surinam grass [1, 22] | Plant response rating, Bermudagrass [2, 22] | Plant response rating, Johnsongrass [5, 22] | Plant response rating (0 to 100), Johnsongrass ([5]; preemergence, Rate 250 g/ha) | Plant response rating, Johnsongrass [5, 23] | Plant response rating, Pigweed [6, 25] | Plant response rating, Cupgrass, Woolly [9, 22] | Plant response rating, Velvetleaf [10, 23] | Plant response rating, Morningglory [11, 22] | Plant response rating, Lambsquarters [13, 22] | Plant response rating, Soybean [15, 23] | Plant response rating, Soybean [15, 25] | Plant response rating, Ragweed, Common ([20]; Rate 125 g/ha) | Plant response rating, Corn [16, 22] | Plant response rating (0 to 100), Corn ([16]; preemergence, Rate 250 g/ha) | Plant response rating (0 to 100), Corn ([16]; preemergence, Rate 500 g/ha) | Plant response rating, Corn [16, 23] | Plant response rating, Cocklebur [17, 22] | Plant response rating, Nutsedge [18, 22] | Plant response rating, Nutsedge [18, 23]
80: Plant response rating (0 to 100), Surinam grass ([1]; preemergence, Rate 250 g/ha) | Plant response rating (0 to 100), Goosegrass ([4]; preemergence, Rate 250 g/ha) | Plant response rating (0 to 100), Cupgrass, Woolly ([9]; preemergence, Rate 250 g/ha)
100: Plant response rating (0 to 100 where 0 is no effect and 100 is complete control), Bermudagrass ([2]; preemergence, Rate 500 g/ha) | Plant response rating (0 to 100), Pigweed ([6]; preemergence, Rate 500 g/ha) | Plant response rating, Pigweed [6, 23] | Plant response rating (0 to 100), Kochia ([7]; preemergence, Rate 500 g/ha) | Plant response rating, Kochia [7, 23] | Plant response rating (0 to 100), Morningglory ([11]; preemergence, Rate 500 g/ha) | Plant response rating (0 to 100), Crabgrass ([12]; preemergence, Rate 250 g/ha) | Plant response rating (0 to 100), Crabgrass ([12]; preemergence, Rate 500 g/ha) | Plant response rating, Crabgrass [12, 23] | Plant response rating (0 to 100), Lambsquarters ([13]; preemergence, Rate 500 g/ha) | Plant response rating, Lambsquarters [13, 23] | Plant response rating, Lambsquarters [13, 25]
60: Plant response rating (0 to 100), Nightshade ([19]; Rate 500 g/ha)
90: Plant response rating (0 to 100 where 0 is no effect and 100 is complete control), Bermudagrass ([2]; preemergence, Rate 250 g/ha) | Plant response rating, Bermudagrass [2, 23] | Plant response rating (0 to 100), Foxtail, Giant ([3]; preemergence, Rate 500 g/ha) | Plant response rating (0 to 100), Goosegrass ([4]; preemergence, Rate 500 g/ha) | Plant response rating (0 to 100), Kochia ([7]; preemergence, Rate 250 g/ha) | Plant response rating, Crabgrass [12, 22] | Plant response rating (0 to 100), Ragweed, Common ([20]; Rate 500 g/ha, visual evaluation after 12 to 14 days)
10: Plant response rating, Cupgrass, Woolly [9, 23] | Plant response rating, Velvetleaf [10, 25] | Plant response rating, Morningglory [11, 25] | Plant response rating, Nightshade [14, 24] | Plant response rating (0 to 100), Cocklebur ([17]; preemergence, Rate 250 g/ha)
20: Plant response rating, Goosegrass [4, 22] | Plant response rating (0 to 100), Soybean ([15]; preemergence, Rate 500 g/ha) | Plant response rating (0 to 100), Nutsedge ([18]; preemergence, Rate 500 g/ha) | Plant response rating, Nutsedge [18, 25]
30: Plant response rating, Surinam grass [1, 23] | Plant response rating, Foxtail, Giant [3, 22] | Plant response rating, Kochia [7, 22] | Plant response rating, Morningglory [11, 23] | Plant response rating, Nightshade [14, 22] | Plant response rating, Nightshade ([14]; Rate 250 g/ha, scale 0 to 100, 0 no effect, 100 complete control) | Plant response rating, Cocklebur [17, 23]
70: Plant response rating (0 to 100), Foxtail, Giant ([3]; preemergence, Rate 250 g/ha) | Plant response rating, Foxtail, Giant [3, 23] | Plant response rating, Goosegrass [4, 23] | Plant response rating (0 to 100), Cupgrass, Woolly ([9]; preemergence, Rate 500 g/ha) | Plant response rating, Ragweed, Common ([20]; Rate 250 g/ha) | Plant response rating (0 to 100), Cocklebur ([17]; preemergence, Rate 500 g/ha)
